System: HCT116 colorectal cancer cells
Assay: Cisplatin sensitization assay (96 h cell viability MTS);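 note: Test-compound concentration that lowers the Cisplatin IC50 by a set fold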
Type: cell-based
Conditions: compound and Cisplatin added simultaneously, Cisplatin sensitization value
Method: Compounds can be screened for their ability to sensitize HCT116 colorectal cancer cells to Cisplatin using a 96 h cell viability (MTS) assay. […] Compounds and Cisplatin are then both added simultaneously to the cell media in 2-fold serial dilutions from a top final concentration of 10 μM as a full matrix of concentrations in a final cell volume of 200 μl, and the cells are then incubated at 37° C. in 5% CO2. After 96 h, 40 μl of MTS reagent (Promega G358a) is added to each well and the cells are incubated for 1 h at 37° C. in 5% CO2.
Compounds with a Cisplatin sensitization value of <0.02 μM are marked with “+++.” Compounds with a Cisplatin sensitization value>0.02 μM but <0.2 μM are marked with “++.” Compounds with a Cisplatin sensitization value>0.2 μM but <5 μM are marked with “+.”

Nc1nn2cc(F)cnc2c1C(=O)Nc1cnccc1N1CCN(C2CCOC2)CC1 (racemic) [I-N-19, (R,S)-2-amino-6-fluoro-N-(4-(4-(tetrahydrofuran-3-yl)piperazin-1-yl)pyridin-3-yl)pyrazolo[1,5-a]pyrimidine-3-carboxamide]
Cisplatin Sensitization Assay: +++ (Cisplatin sensitization value of <0.02 μM)

N#CCc1cnc2c(C(=O)Nc3cnccc3OC3CCCNC3)c(N)nn2c1 (racemic) [I-O-2, (R,S)-2-amino-6-(cyanomethyl)-N-(4-(piperidin-3-yloxy)pyridin-3-yl)pyrazolo[1,5-a]pyrimidine-3-carboxamide]
Cisplatin Sensitization Assay: ++ (Cisplatin sensitization value>0.02 μM but <0.2 μM)

Nc1nn2cc(F)cnc2c1C(=O)Nc1cnccc1OC1CN2CCC1CC2 (racemic) [I-O-6, (R,S)-2-amino-6-fluoro-N-(4-(quinuclidin-3-yloxy)pyridin-3-yl)pyrazolo[1,5-a]pyrimidine-3-carboxamide]
Cisplatin Sensitization Assay: +++ (Cisplatin sensitization value of <0.02 μM)

Nc1nn2cc(F)cnc2c1C(=O)Nc1cnccc1OC1CCOC1 (racemic) [I-O-15, (R,S)-2-amino-6-fluoro-N-(4-((tetrahydrofuran-3-yl)oxy)pyridin-3-yl)pyrazolo[1,5-a]pyrimidine-3-carboxamide]
Cisplatin Sensitization Assay: +++ (Cisplatin sensitization value of <0.02 μM)

N#CCc1cnc2c(C(=O)Nc3cnccc3OC3CCOC3)c(N)nn2c1 (racemic) [I-O-37, (R,S)-2-amino-6-(cyanomethyl)-N-(4-((tetrahydrofuran-3-yl)oxy)pyridin-3-yl)pyrazolo[1,5-a]pyrimidine-3-carboxamide]
Cisplatin Sensitization Assay: +++ (Cisplatin sensitization value of <0.02 μM)

Nc1nn2cc(F)cnc2c1C(=O)Nc1cnccc1O[C@@H]1CN2CCC1CC2 [Compound I-0-10, (S)-2-amino-6-fluoro-N-(4-(quinuclidin-3-yloxy)pyridin-3-yl)pyrazolo[1,5-a]pyrimidine-3-carboxamide]
Cisplatin Sensitization Assay: +++ (Cisplatin sensitization value of <0.02 μM)

Nc1nn2cc(F)cnc2c1C(=O)Nc1cnccc1OC1CCN(C2COC2)CC1 [Compound I-0-11, 2-amino-6-fluoro-N-(4-((1-(oxetan-3-yl)piperidin-4-yl)oxy)pyridin-3-yl)pyrazolo[1,5-a]pyrimidine-3-carboxamide]
Cisplatin Sensitization Assay: +++ (Cisplatin sensitization value of <0.02 μM)

CN1CCC(c2ccncc2NC(=O)c2c(N)nn3cc(F)cnc23)CC1 [I-C-1, 2-amino-6-fluoro-N-(4-(1-methylpiperidin-4-yl)pyridin-3-yl)pyrazolo[1,5-a]pyrimidine-3-carboxamide]
Cisplatin Sensitization Assay: ++ (Cisplatin sensitization value>0.02 μM but <0.2 μM)

Cc1ccncc1NC(=O)c1c(N)nn2cc(Cl)cnc12 [I-C-2, 2-amino-6-chloro-N-(4-methylpyridin-3-yl)pyrazolo[1,5-a]pyrimidine-3-carboxamide]
Cisplatin Sensitization Assay: ++ (Cisplatin sensitization value>0.02 μM but <0.2 μM)

Cc1ccncc1NC(=O)c1c(N)nn2cc(F)cnc12 [I-C-4, 2-amino-6-fluoro-N-(4-methylpyridin-3-yl)pyrazolo[1,5-a]pyrimidine-3-carboxamide]
Cisplatin Sensitization Assay: ++ (Cisplatin sensitization value>0.02 μM but <0.2 μM)

Nc1nn2cc(F)cnc2c1C(=O)Nc1cnccc1-c1ccccc1 [I-C-5, 2-amino-6-fluoro-N-(4-phenylpyridin-3-yl)pyrazolo[1,5-a]pyrimidine-3-carboxamide]
Cisplatin Sensitization Assay: +++ (Cisplatin sensitization value of <0.02 μM)

N#CCc1cnc2c(C(=O)Nc3cnccc3-c3ccccc3)c(N)nn2c1 [I-C-6, 2-amino-6-(cyanomethyl)-N-(4-phenylpyridin-3-yl)pyrazolo[1,5-a]pyrimidine-3-carboxamide]
Cisplatin Sensitization Assay: +++ (Cisplatin sensitization value of <0.02 μM)

Nc1nn2cc(F)cnc2c1C(=O)Nc1cncc2c1CCNC2 [I-C-7, 2-amino-6-fluoro-N-(5,6,7,8-tetrahydro-2,7-naphthyridin-4-yl)pyrazolo[1,5-a]pyrimidine-3-carboxamide]
Cisplatin Sensitization Assay: ++ (Cisplatin sensitization value>0.02 μM but <0.2 μM)

CN1CCc2c(cncc2NC(=O)c2c(N)nn3cc(F)cnc23)C1 [I-C-8, 2-amino-6-fluoro-N-(7-methyl-5,6,7,8-tetrahydro-2,7-naphthyridin-4-yl)pyrazolo[1,5-a]pyrimidine-3-carboxamide]
Cisplatin Sensitization Assay: + (Cisplatin sensitization value>0.2 μM but <5 μM)

C[N+]1([O-])CCc2c(cncc2NC(=O)c2c(N)nn3cc(F)cnc23)C1 (stereo not shown) [I-C-9, 5-(2-amino-6-fluoropyrazolo[1,5-a]pyrimidine-3-carboxamido)-2-methyl-1,2,3,4-tetrahydro-2,7-naphthyridine 2-oxide]
Cisplatin Sensitization Assay: + (Cisplatin sensitization value>0.2 μM but <5 μM)

Nc1nn2cc(F)cnc2c1C(=O)Nc1cnccc1C1CCN(C2COC2)CC1 [I-C-10, 2-amino-6-fluoro-N-(4-(1-(oxetan-3-yl)piperidin-4-yl)pyridin-3-yl)pyrazolo[1,5-a]pyrimidine-3-carboxamide]
Cisplatin Sensitization Assay: +++ (Cisplatin sensitization value of <0.02 μM)

Nc1nn2cc(Cl)cnc2c1C(=O)Nc1cnccc1C1CCN(C2COC2)CC1 [I-C-11, 2-amino-6-chloro-N-(4-(1-(oxetan-3-yl)piperidin-4-yl)pyridin-3-yl)pyrazolo[1,5-a]pyrimidine-3-carboxamide]
Cisplatin Sensitization Assay: +++ (Cisplatin sensitization value of <0.02 μM)

Nc1nn2cc(F)cnc2c1C(=O)Nc1cncc(F)c1C1=CCN(C2COC2)CC1 [I-C-12, 2-amino-6-fluoro-N-(5-fluoro-1′-(oxetan-3-yl)-1′,2′,3′,6′-tetrahydro-[4,4′-bipyridin]-3-yl)pyrazolo[1,5-a]pyrimidine-3-carboxamide]
Cisplatin Sensitization Assay: +++ (Cisplatin sensitization value of <0.02 μM)

Nc1nn2cc(F)cnc2c1C(=O)Nc1cncc(F)c1C1CCN(C2COC2)CC1 [I-C-13, 2-amino-6-fluoro-N-(5-fluoro-4-(1-(oxetan-3-yl)piperidin-4-yl)pyridin-3-yl)pyrazolo[1,5-a]pyrimidine-3-carboxamide]
Cisplatin Sensitization Assay: ++ (Cisplatin sensitization value>0.02 μM but <0.2 μM)

CN1CCC(c2c(F)cncc2NC(=O)c2c(N)nn3cc(F)cnc23)CC1 [I-C-14, 2-amino-6-fluoro-N-(5-fluoro-4-(1-methylpiperidin-4-yl)pyridin-3-yl)pyrazolo[1,5-a]pyrimidine-3-carboxamide]
Cisplatin Sensitization Assay: + (Cisplatin sensitization value>0.2 μM but <5 μM)

Nc1nn2cc(F)cnc2c1C(=O)Nc1cnccc1-c1cccnc1 [I-C-15, N-([3,4′-bipyridin]-3′-yl)-2-amino-6-fluoropyrazolo[1,5-a]pyrimidine-3-carboxamide]
Cisplatin Sensitization Assay: ++ (Cisplatin sensitization value>0.02 μM but <0.2 μM)

CN1CCC(C(=O)N2CCC(c3ccncc3NC(=O)c3c(N)nn4cc(F)cnc34)CC2)CC1 [I-C-16, 2-amino-6-fluoro-N-(4-(1-(1-methylpiperidine-4-carbonyl)piperidin-4-yl)pyridin-3-yl)pyrazolo[1,5-a]pyrimidine-3-carboxamide]
Cisplatin Sensitization Assay: + (Cisplatin sensitization value>0.2 μM but <5 μM)

CN1CCN(C(=O)N2CCC(c3ccncc3NC(=O)c3c(N)nn4cc(F)cnc34)CC2)CC1 [I-C-17, 2-amino-6-fluoro-N-(4-(1-(4-methylpiperazine-1-carbonyl)piperidin-4-yl)pyridin-3-yl)pyrazolo[1,5-a]pyrimidine-3-carboxamide]
Cisplatin Sensitization Assay: ++ (Cisplatin sensitization value>0.02 μM but <0.2 μM)

Nc1nn2cc(F)cnc2c1C(=O)Nc1cnccc1C1CCN(C(=O)C23CCN(CC2)CC3)CC1 [I-C-18, 2-amino-6-fluoro-N-(4-(1-(quinuclidine-4-carbonyl)piperidin-4-yl)pyridin-3-yl)pyrazolo[1,5-a]pyrimidine-3-carboxamide]
Cisplatin Sensitization Assay: + (Cisplatin sensitization value>0.2 μM but <5 μM)

CN1CCN(C(=O)c2ccc(-c3ccncc3NC(=O)c3c(N)nn4cc(F)cnc34)cn2)CC1 [I-C-19, 2-amino-6-fluoro-N-(6-(4-methylpiperazine-1-carbonyl)-[3,4′-bipyridin]-3′-yl)pyrazolo[1,5-a]pyrimidine-3-carboxamide]
Cisplatin Sensitization Assay: ++ (Cisplatin sensitization value>0.02 μM but <0.2 μM)

Cc1ncccc1-c1ccncc1NC(=O)c1c(N)nn2cc(F)cnc12 [I-C-20, 2-amino-6-fluoro-N-(2-methyl-[3,4′-bipyridin]-3′-yl)pyrazolo[1,5-a]pyrimidine-3-carboxamide]
Cisplatin Sensitization Assay: +++ (Cisplatin sensitization value of <0.02 μM)

CN1CCN(c2ccc(-c3ccncc3NC(=O)c3c(N)nn4cc(F)cnc34)cn2)CC1 [I-C-21, 2-amino-6-fluoro-N-(6-(4-methylpiperazin-1-yl)-[3,4′-bipyridin]-3′-yl)pyrazolo[1,5-a]pyrimidine-3-carboxamide]
Cisplatin Sensitization Assay: +++ (Cisplatin sensitization value of <0.02 μM)

Cc1ccc(-c2ccncc2NC(=O)c2c(N)nn3cc(F)cnc23)cn1 [I-C-22, 2-amino-6-fluoro-N-(6-methyl-[3,4′-bipyridin]-3′-yl)pyrazolo[1,5-a]pyrimidine-3-carboxamide]
Cisplatin Sensitization Assay: ++ (Cisplatin sensitization value>0.02 μM but <0.2 μM)
